In PubChem BioAssay (NCI) one finds GI50 and TGI data, which are given here for eight molecules.

Values joined by “and” are separate entries in the source; they are usually repeats but may differ in a detail not shown here. Equal values may be shown once.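 Step 1: Grow cells in 96-well plates. Step 2: Expose to compound for 48 hours at 5 concentrations. Step 3: Interpolate endpoints linearly; if unreached, use highest concentration. The concentration for 50% growth inhibition is given as GI50. The concentration for full growth arrest is given as TGI.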

Holding throughout (experiment): NCI anticancer screen, dose series, 48 h
Experiment [1] relates to COLO 205 colon.
In experiment [2] the test system is HL-60(TB) leukemia.
For experiment [3], the system named is HOP-92 NSCLC.
For experiment [4], the system named is HT29 colon.
Experiment [5] has as its system NCI-H226 lung.
For experiment [6], the system named is PC-3 prostate.
Experiment [7] deals with SF-268 CNS.
The subject of experiment [8] is SK-MEL-2 melanoma.
For experiment [9], the system named is TK-10 renal.
Experiment [10] has as its system UACC-257 melanoma.

Consider `c1ccc(OCC[P+](c2ccccc2)(c2ccccc2)c2ccccc2)cc1`, for which the GI50 in experiment [1] was 0.549 µM; in experiment [2], 0.275 µM; in experiment [3], 0.312 µM; in experiment [4], 0.308 µM; in experiment [5] it was 2.03 µM; in [6], 0.535 µM. Also, the GI50 in experiment [7] was 2.05 µM; in experiment [8], 1.06 µM; in experiment [9] it was 1.73 µM; in [10], 0.425 µM. The TGI is 2.02 µM in experiment [1]; 1.45 µM in experiment [2]; 3.06 µM in experiment [3]; 10.9 µM in experiment [4]; 12.1 µM in [5]; 11.6 µM in [6]. The TGI in experiment [7] was determined as 13.5 µM; in experiment [8], 10.8 µM; in experiment [9], 14.5 µM; in [10], 5.41 µM.

As to `C/C=C1/CN2CCC34c5ccccc5N5C(=O)C(C6CC78c9ccccc9N9C(=O)C=CC(C%10CC7N6C/C%10=C/C)C98)=CC(C1CC23)C54` (centres undefined), the GI50 in experiment [1] was 8.74 µM; in [2], 2.7 µM; in experiment [3] it was 0.466 µM; in experiment [5] it was 24 µM; in [6], 2.45 µM; in experiment [7], 4.3 µM. Moreover, the GI50 is 12.3 µM in experiment [8], 22 µM in experiment [9] and 2.93 µM in [10]. Besides, the TGI in experiment [1] is 12.4 µM and 26.6 µM; in experiment [2], 1.36 µM and 10.2 µM; in [3], 13.6 µM and 6.71 µM; in experiment [4], 9.87 µM and 5.4 µM; in [5], 15 µM and 46 µM; in experiment [6], 9.38 µM. The TGI in experiment [7] is 17.7 µM and 17.2 µM; in experiment [8], 13.5 µM and 25.5 µM; in [9], 14.4 µM and 40.7 µM; in [10] it was 12.2 µM and 9.24 µM.

Take `COc1ccc(COc2ccc(Cc3cnc(N)nc3N)cc2OC)cc1`: the GI50 was 4.27 µM in [1]; greater than 20.6 µM in experiment [2]; 1.29 µM in experiment [3]; 11.7 µM in experiment [4]; 16 µM in experiment [5]; greater than 22.4 µM in experiment [6]. In addition, the GI50 in [7] was greater than 25 µM; in experiment [8] it was greater than 25 µM; in experiment [9] it was greater than 25 µM; in experiment [10] it was 8.48 µM. Moreover, the TGI in experiment [1] is 8.15 µM; in experiment [2] it was greater than 25 µM; in [3], greater than 21 µM; in [4], greater than 25 µM; in experiment [5] it was greater than 25 µM; in experiment [6], greater than 25 µM. Moreover, the TGI in experiment [7], in experiment [8], in experiment [9] and in experiment [10] was greater than 25 µM each time.

`CNC(=O)c1cc(Oc2ccc(NC(=O)Nc3ccc(Cl)c(C(F)(F)F)c3)cc2)ccn1`: the GI50 in experiment [1] is 2.57 µM and 2.9 µM and 2.33 µM; in experiment [2], 0.703 µM and 1.53 µM; in experiment [3] it was 1.65 µM and 1.43 µM and 1.75 µM; in experiment [4], 2.54 µM and 2.45 µM and 2.36 µM; in [5], 1.14 µM and 2.29 µM and 2 µM; in experiment [6], 2.2 µM and 2.6 µM and 2.14 µM. Besides, the GI50 in experiment [7] is 4.15 µM and 2.73 µM and 2.63 µM; in [8] it was 1.16 µM and 1.31 µM and 1.77 µM; in experiment [9], 4.41 µM and 3.83 µM and 4.48 µM; in experiment [10] it was 2.14 µM and 1.99 µM and 2.2 µM. Further, the TGI in experiment [1] is 8.46 µM and 7.66 µM and 6.26 µM; in experiment [2], 3.8 µM and 14.1 µM; in experiment [3], 5.62 µM and 5.12 µM and 6.38 µM; in experiment [4], > 10 µM and 8.39 µM and 9.02 µM; in [5], 9.38 µM and 7.14 µM and 7.27 µM; in [6], 8.51 µM and 8.9 µM and 8.57 µM. Also, the TGI in experiment [7] is > 10 µM and 10.8 µM and 7.88 µM; in [8], 3.57 µM and 2.93 µM and 6.22 µM; in experiment [9], > 10 µM and 9.96 µM and 20.2 µM; in [10], 6.41 µM and 5.16 µM and 6.15 µM.

Turning to `Cc1cccc(Nc2ncc(-c3ccccc3)o2)c1`, the GI50 in experiment [1], in experiment [2], in experiment [3], in experiment [4], in experiment [5] and in experiment [6] was greater than 25 µM throughout. Moreover, the GI50 in experiment [7], in experiment [8], in experiment [9] and in experiment [10] was greater than 25 µM each time. The TGI in [1], in experiment [2], in experiment [3], in experiment [4], in [5] and in experiment [6] was greater than 25 µM throughout. The TGI in experiment [7], in experiment [8], in experiment [9] and in experiment [10] was greater than 25 µM in each case.

`CCN(Cc1c(F)cccc1C(F)(F)F)c1ccc(CO)c(Cl)c1`: the GI50 in experiment [1] was 2.44 µM; in experiment [2], 15.9 µM; in experiment [3], 0.856 µM; in experiment [4], 2.99 µM; in experiment [5], 0.035 µM; in [6] it was 12.3 µM. The GI50 in experiment [7] was 16.6 µM; in experiment [8], 3.33 µM; in experiment [9], 0.0682 µM; in [10], less than 0.0407 µM. The TGI was determined as 14 µM in [1]; 36.9 µM in [2]; 16 µM in experiment [3]; 17.7 µM in experiment [4]; 0.154 µM in experiment [5]; 25.3 µM in [6]. Moreover, the TGI in [7] was 31.5 µM; in [8], 24.5 µM; in [9] it was 0.322 µM; in experiment [10] it was 0.187 µM.

Turning to `c1ccc2c(c1)CCCc1nnc3nc4ccccc4n3c1-2`, the GI50 was 4.78 µM in experiment [1]; 2.49 µM in [2]; 9.53 µM in [3]; 10.1 µM in experiment [4]; 6.39 µM in [5]; 7.87 µM in experiment [6]. Also, the GI50 was 5.73 µM in experiment [7], 28.3 µM in [8], 6.8 µM in [9] and 5.27 µM in experiment [10]. Moreover, the TGI in [1] is greater than 100 µM; in experiment [2], 78.2 µM; in [3], greater than 100 µM; in experiment [4], 82.5 µM; in experiment [5] it was greater than 100 µM; in [6], greater than 100 µM. Moreover, the TGI in experiment [7], in experiment [8], in experiment [9] and in [10] was greater than 100 µM in each case.

Consider `S=C1NC(c2ccccc2)NC(c2ccccc2)S1` (centres undefined), for which the TGI in experiment [1], in experiment [2], in experiment [3], in [4], in experiment [5] and in experiment [6] was greater than 100 µM each time. The TGI in [7], in experiment [8], in experiment [9] and in [10] was greater than 100 µM in each case.
